Experimental data published in the NIST ThermoML archive (doi:10.1021/je060271a).
“And” between values parts separate entries of the source, which are not always exact repeats. Equal values may be shown once.

Details: Liquid, Vibrating tube method

CCCC(=O)OCC(COC(=O)CCC)(COC(=O)CCC)COC(=O)CCC [pentaerythritol tetrabutyrate]
Details	mass density
323.15 K, 30112 kPa	1045 kg/m3
323.15 K, 30149 kPa	1045.1 kg/m3
323.15 K, 30193 kPa	1045.1 kg/m3
323.15 K, 30232 kPa	1045.2 kg/m3
323.15 K, 30562 kPa	1045.3 kg/m3
323.15 K, 30601 kPa	1045.3 kg/m3
323.15 K, 30640 kPa	1045.5 kg/m3
323.15 K, 30680 kPa	1045.4 kg/m3
323.15 K, 30730 kPa	1045.5 kg/m3
323.15 K, 30771 kPa	1045.5 kg/m3
323.15 K, 30818 kPa	1045.4 kg/m3
323.15 K, 30850 kPa	1045.6 kg/m3
323.15 K, 30881 kPa	1045.6 kg/m3
323.15 K, 30918 kPa	1045.7 kg/m3
323.15 K, 30948 kPa	1045.6 kg/m3
323.15 K, 30979 kPa	1045.6 kg/m3
323.15 K, 31009 kPa	1045.7 kg/m3
323.15 K, 31047 kPa	1045.6 kg/m3
323.15 K, 31079 kPa	1045.6 kg/m3
323.15 K, 31110 kPa	1045.6 kg/m3
323.15 K, 31146 kPa	1045.7 kg/m3
323.15 K, 31178 kPa	1045.9 kg/m3
323.15 K, 31209 kPa	1045.6 kg/m3
323.15 K, 31247 kPa	1045.7 kg/m3
323.15 K, 31278 kPa	1045.7 kg/m3
323.15 K, 31310 kPa	1045.8 kg/m3
323.15 K, 31347 kPa	1045.9 kg/m3
323.15 K, 31379 kPa	1045.9 kg/m3
323.15 K, 31411 kPa	1045.8 kg/m3
323.15 K, 31450 kPa	1045.8 kg/m3
323.15 K, 31481 kPa	1045.9 kg/m3
323.15 K, 31513 kPa	1045.9 kg/m3
323.15 K, 31546 kPa	1046 kg/m3
323.15 K, 31584 kPa	1045.9 kg/m3
323.15 K, 31616 kPa	1046 kg/m3
323.15 K, 31649 kPa	1046 kg/m3
323.15 K, 31690 kPa	1046 kg/m3
323.15 K, 31725 kPa	1046 kg/m3
323.15 K, 31758 kPa	1046 kg/m3
323.15 K, 31791 kPa	1046 kg/m3
323.15 K, 31830 kPa	1046.2 kg/m3
323.15 K, 31863 kPa	1046.2 kg/m3
323.15 K, 31896 kPa	1046.1 kg/m3
323.15 K, 31936 kPa	1046.2 kg/m3
323.15 K, 31970 kPa	1046.2 kg/m3
323.15 K, 32003 kPa	1046.3 kg/m3
323.15 K, 32043 kPa	1046.2 kg/m3
323.15 K, 32151 kPa	1046.3 kg/m3
323.15 K, 32179 kPa	1046.3 kg/m3
323.15 K, 32219 kPa	1046.4 kg/m3
323.15 K, 32253 kPa	1046.3 kg/m3
323.15 K, 32288 kPa	1046.4 kg/m3
323.15 K, 32328 kPa	1046.5 kg/m3
323.15 K, 32362 kPa	1046.4 kg/m3
323.15 K, 32403 kPa	1046.5 kg/m3
323.15 K, 32437 kPa	1046.5 kg/m3
323.15 K, 32472 kPa	1046.5 kg/m3
323.15 K, 32506 kPa	1046.5 kg/m3
323.15 K, 32548 kPa	1046.5 kg/m3
323.15 K, 32583 kPa	1046.6 kg/m3
323.15 K, 32618 kPa	1046.6 kg/m3
323.15 K, 32660 kPa	1046.7 kg/m3
323.15 K, 32694 kPa	1046.6 kg/m3
323.15 K, 32737 kPa	1046.6 kg/m3
323.15 K, 32772 kPa	1046.7 kg/m3
323.15 K, 32808 kPa	1046.9 kg/m3
323.15 K, 32843 kPa	1046.6 kg/m3
323.15 K, 32886 kPa	1046.8 kg/m3
323.15 K, 32921 kPa	1046.8 kg/m3
323.15 K, 33152 kPa	1046.9 kg/m3
323.15 K, 33188 kPa	1047 kg/m3
323.15 K, 33232 kPa	1046.9 kg/m3
323.15 K, 33268 kPa	1047 kg/m3
323.15 K, 33305 kPa	1046.9 kg/m3
323.15 K, 33386 kPa	1047 kg/m3
323.15 K, 33430 kPa	1047.1 kg/m3
323.15 K, 33468 kPa	1047.2 kg/m3
323.15 K, 33504 kPa	1047.1 kg/m3
323.15 K, 33549 kPa	1047.2 kg/m3
323.15 K, 33587 kPa	1047.2 kg/m3
323.15 K, 33625 kPa	1047.2 kg/m3
323.15 K, 33664 kPa	1047.2 kg/m3
323.15 K, 33690 kPa	1047.2 kg/m3
323.15 K, 33710 kPa	1047.3 kg/m3
323.15 K, 33750 kPa	1047.2 kg/m3
323.15 K, 33797 kPa	1047.3 kg/m3
323.15 K, 33837 kPa	1047.4 kg/m3
323.15 K, 34013 kPa	1047.4 kg/m3
323.15 K, 34067 kPa	1047.4 kg/m3
323.15 K, 34113 kPa	1047.7 kg/m3
323.15 K, 34161 kPa	1047.5 kg/m3
323.15 K, 34221 kPa	1047.5 kg/m3
323.15 K, 34272 kPa	1047.7 kg/m3
323.15 K, 34276 kPa	1047.6 kg/m3
323.15 K, 34313 kPa	1047.6 kg/m3
323.15 K, 34342 kPa	1047.6 kg/m3
323.15 K, 34379 kPa	1047.7 kg/m3
323.15 K, 34410 kPa	1047.7 kg/m3
323.15 K, 34436 kPa	1047.7 kg/m3
323.15 K, 34450 kPa	1047.8 kg/m3
323.15 K, 34468 kPa	1047.9 kg/m3
323.15 K, 34568 kPa	1047.8 kg/m3
323.15 K, 34570 kPa	1047.8 kg/m3 and 1047.9 kg/m3
323.15 K, 34571 kPa	1047.7 kg/m3
323.15 K, 34572 kPa	1047.7 kg/m3 and 1047.9 kg/m3 and 1047.8 kg/m3
343.13 K, 2755.8 kPa	1010.1 kg/m3
343.13 K, 2840 kPa	1010.2 kg/m3
343.13 K, 4339.6 kPa	1011.5 kg/m3
343.14 K, 104.4 kPa	1008.1 kg/m3
343.14 K, 105.3 kPa	1008.1 kg/m3
343.14 K, 105.8 kPa	1008.1 kg/m3
343.14 K, 106.3 kPa	1008.1 kg/m3
343.14 K, 107.5 kPa	1008.2 kg/m3
343.14 K, 108.6 kPa	1008.2 kg/m3
343.14 K, 110.3 kPa	1008.1 kg/m3
343.14 K, 112.9 kPa	1008.2 kg/m3
343.14 K, 116.2 kPa	1008.1 kg/m3
343.14 K, 121.8 kPa	1008.1 kg/m3
343.14 K, 129.6 kPa	1008.1 kg/m3
343.14 K, 141.1 kPa	1008.3 kg/m3
343.14 K, 155.9 kPa	1008.2 kg/m3
343.14 K, 167 kPa	1008.1 kg/m3
343.14 K, 181.6 kPa	1008.1 kg/m3
343.14 K, 200 kPa	1008.2 kg/m3
343.14 K, 216 kPa	1008.1 kg/m3
343.14 K, 226.6 kPa	1008.2 kg/m3
343.14 K, 238.6 kPa	1008.3 kg/m3
343.14 K, 252.1 kPa	1008.2 kg/m3
343.14 K, 267.4 kPa	1008.2 kg/m3
343.14 K, 284.6 kPa	1008.3 kg/m3
343.14 K, 304.8 kPa	1008.3 kg/m3
343.14 K, 328.1 kPa	1008.2 kg/m3
343.14 K, 354.2 kPa	1008.2 kg/m3
343.14 K, 383.4 kPa	1008.3 kg/m3
343.14 K, 404.4 kPa	1008.4 kg/m3
343.14 K, 419.5 kPa	1008.4 kg/m3
343.14 K, 436.2 kPa	1008.5 kg/m3
343.14 K, 541.8 kPa	1008.4 kg/m3
343.14 K, 568.7 kPa	1008.5 kg/m3
343.14 K, 598.4 kPa	1008.6 kg/m3
343.14 K, 626.6 kPa	1008.5 kg/m3
343.14 K, 662.6 kPa	1008.4 kg/m3
343.14 K, 698.7 kPa	1008.5 kg/m3
343.14 K, 717.3 kPa	1008.6 kg/m3
343.14 K, 736.7 kPa	1008.6 kg/m3
343.14 K, 752.7 kPa	1008.6 kg/m3
